# Results as given in patent publication US10703735B2, “4-phenyl-coumarin derivatives, processes for their preparation and uses thereof for the treatment of cancer” (Lead Discovery Center GmbH, priority 2018, dated 2020).
# Target: mitochondrial RNA-polymerase (POLRMT) (Mus musculus, UniProt Q8BKF1)
# Test: Homogeneous TR-FRET assay for mitochondrial transcription activity
# Type: biochemical
# Conditions: homogeneous TR-FRET assay according to Example 4; read-out: mitochondrial transcription activity (IC-50)
# From the text: The TR-FRET assay was basically conducted as described in WO 2016/193231A1, especially as described in example 1 (hereby incorporated by reference). With respect to the background of the mitochondrial transcription it is referred to Falkenberg et al. (2002) and Posse et al. (Posse et al. 2015). The method monitors the activity of mitochondrial RNA-polymerase via detection of the formation of its product, a 407 bp long RNA sequence. Detection of the product is facilitated by hybridization of two DNA-oligonucleotide probes to specific and adjacent sequences within the RNA product sequence. Upon annealing of the probes, two fluorophores that are coupled directly to an acceptor nucleotide probe (ATT0647, 5′) or introduced via a coupled streptavidin interacting with a biotinylated donor nucleotide probe on the other side (Europium cryptate, 3) are brought into sufficient proximity to serve as a fluorescence-donor-acceptor pair as generally described in Walters and Namchuk (2003). Thus, a FRET signal at 665 nm is generated upon excitation at 340 nm.
# Briefly, the protocol described here was applied for screening and activity determination in a low-volume 384-well microtiter plate with non-binding surface. For high-throughput application in the 1536-well microtiter plate format, volumes of the reagent mixes were adjusted, maintaining the volumetric ratio. Proteins POLRMT (NM_172551.3), TFAM (NM_009360.4) and TFB2M (NM_008249.4) were diluted from their stocks to working concentrations of 150 nM, 1.8 μM and 330 nM respectively, in a dilution buffer containing 100 mM Tris-HCl pH 8.0, 200 mM NaCl, 10% (v/v) glycerole, 2 mM glutathione (GSH), 0.5 mM EDTA and 0.1 mg/mL BSA. Protein dilutions and template DNA, comprising a pUC18 plasmid encoding the mitochondrial light strand promoter, restriction linearized proximal to the promoter 3′-end (pUC-LSP), were mixed at the twofold final assay-concentration in a reaction buffer, containing 10 mM Tris-HCl pH 7.5, 10 mM MgCl2, 40 mM NaCl, 2 mM GSH, 0.01% (w/v) Tween-20 and 0.1 mg/mL BSA.
# 5 μL of this mix were dispensed, depending on the chosen microtiter plate format, using multi-channel pipettes or a Multidrop® dispenser (Thermo Fisher Scientific, Waltham Mass.) into the wells of a microtiter plate and incubated at room temperature (RT) for 10 min. Chemical compounds under scrutiny in the assay were applied using contact-free acoustic droplet-dispensing (Echo520® Labcyte Inc., Sunnyvale Calif.) from 10 mM compound stocks in 100% DMSO, to a final concentration of 10 μM or in serial dilution series of the required concentration range. Equal amounts of DMSO without any compound were added to positive control samples, followed by an incubation step at RT for 10 min.
# The enzymatic reaction was started by the addition of 5 μL of a mix of dNTPs in reaction buffer to a final concentration of 500 μM each. No nucleotide mix was added to negative control samples. The content of the wells was mixed using a VarioTeleshaker™ (Thermo Fisher Scientific, Waltham Mass.) at 1500 rpm for 45 sec after which the microtiter plate was centrifuged at 500×g for 1 min. The samples were incubated for 2 h at RT with humidity control to avoid evaporation. The detection reagents were prepared in a buffer that was composed, such that the enzymatic reaction was terminated due to chelating of Mg-ions and increased ionic strength, containing 50 mM Tris-HCl pH 7.5, 700 mM NaCl, 20 mM EDTA, and 0.01% (w/v) Tween-20. Importantly Eu-cryptate-coupled streptavidin had to be preincubated with a 100-fold molar excess of a random sequence oligonucleotide for 10 min at RT in the dark to block unspecific binding of single stranded RNA to the protein. Subsequently, the blocked streptavidin(-Eu) was mixed with the DNA-probes on ice and kept away from light until use. […]
# mitochondrial RNA-polymerase (POLRMT), sequence (Q8BKF1 42-1207): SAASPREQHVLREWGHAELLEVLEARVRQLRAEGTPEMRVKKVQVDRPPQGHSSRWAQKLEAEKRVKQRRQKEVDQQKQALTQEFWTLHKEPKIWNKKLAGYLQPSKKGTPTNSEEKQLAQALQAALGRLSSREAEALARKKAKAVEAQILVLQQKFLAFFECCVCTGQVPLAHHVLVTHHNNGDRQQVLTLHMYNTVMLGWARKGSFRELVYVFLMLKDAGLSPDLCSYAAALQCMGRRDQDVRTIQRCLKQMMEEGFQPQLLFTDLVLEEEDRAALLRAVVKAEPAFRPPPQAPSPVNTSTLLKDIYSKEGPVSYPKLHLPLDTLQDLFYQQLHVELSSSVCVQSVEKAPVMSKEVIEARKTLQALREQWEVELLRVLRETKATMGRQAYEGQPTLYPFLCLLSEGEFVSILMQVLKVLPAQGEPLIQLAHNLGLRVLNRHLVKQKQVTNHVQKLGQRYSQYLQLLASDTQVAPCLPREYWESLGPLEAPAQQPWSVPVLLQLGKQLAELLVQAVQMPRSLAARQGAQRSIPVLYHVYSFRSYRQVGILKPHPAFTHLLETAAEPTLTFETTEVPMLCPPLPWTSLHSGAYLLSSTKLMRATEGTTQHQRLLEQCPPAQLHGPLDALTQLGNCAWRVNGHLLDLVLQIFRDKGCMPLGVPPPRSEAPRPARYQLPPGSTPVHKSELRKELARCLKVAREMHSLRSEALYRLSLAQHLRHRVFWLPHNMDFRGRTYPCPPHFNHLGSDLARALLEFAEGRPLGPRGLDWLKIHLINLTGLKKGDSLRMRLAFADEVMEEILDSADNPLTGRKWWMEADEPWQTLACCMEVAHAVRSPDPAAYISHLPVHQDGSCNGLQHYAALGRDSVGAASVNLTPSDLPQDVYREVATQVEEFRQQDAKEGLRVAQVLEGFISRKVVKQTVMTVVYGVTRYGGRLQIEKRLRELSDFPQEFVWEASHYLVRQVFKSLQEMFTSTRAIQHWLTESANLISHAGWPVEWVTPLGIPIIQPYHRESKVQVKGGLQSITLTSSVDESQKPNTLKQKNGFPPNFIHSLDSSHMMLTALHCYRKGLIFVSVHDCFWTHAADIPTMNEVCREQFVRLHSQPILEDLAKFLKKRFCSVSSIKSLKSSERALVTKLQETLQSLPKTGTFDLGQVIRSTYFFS
row,SMILES,IC50 [µM]
1,"CCN(CC)C(=O)COc1ccc2c(-c3ccccc3)cc(=O)oc2c1 [Compound 48, N,N-diethyl-2-(2-oxo-4-phenyl-chromen-7-yl)oxy-acetamide]",1 to 10
2,"CC(Oc1ccc2c(-c3ccccc3)cc(=O)oc2c1)C(=O)Nc1cccnc1 (stereo not drawn) [Compound 55, 2-(2-oxo-4-phenyl-chromen-7-yl)oxy-N-(3-pyridyl)propanamide]",1 to 10
3,"COC(=O)C(C)Oc1ccc2c(-c3ccccc3)cc(=O)oc2c1 (stereo not drawn) [Compound 56, methyl 2-(2-oxo-4-phenyl-chromen-7-yl)oxypropanoate]",0.1 to 1
4,"CC(Oc1ccc2c(-c3ccccc3)cc(=O)oc2c1)C(=O)N1CCCC(C(N)=O)C1 (stereo not drawn) [Compound 60, 1-[2-(2-oxo-4-phenyl-chromen-7-yl)oxypropanoyl]piperidine-3-carboxamide]",1 to 10
5,"CC(Oc1ccc2c(-c3ccccc3)cc(=O)oc2c1)C(=O)Nc1ccncc1 (stereo not drawn) [Compound 61, 2-(2-oxo-4-phenyl-chromen-7-yl)oxy-N-(4-pyridyl)propanamide]",1 to 10
6,"CNC(=O)C1CCCN(C(=O)C(C)Oc2ccc3c(-c4ccccc4)cc(=O)oc3c2)C1 (stereo not drawn) [Compound 62, N-methyl-1-[2-(2-oxo-4-phenyl-chromen-7-yl)oxypropanoyl]piperidine-3-carboxamide]",1 to 10
7,"COC(=O)C1CCN(C(=O)C(C)Oc2ccc3c(-c4ccccc4)cc(=O)oc3c2)CC1 (stereo not drawn) [Compound 63, methyl 1-[2-(2-oxo-4-phenyl-chromen-7-yl)oxypropanoyl]piperidine-4-carboxylate]",1 to 10
8,"CC(Oc1ccc2c(-c3ccccc3)cc(=O)oc2c1)C(N)=O (stereo not drawn) [Compound 67, 2-(2-oxo-4-phenyl-chromen-7-yl)oxypropanamide]",1 to 10
9,"CC(Oc1ccc2c(-c3ccccc3)cc(=O)oc2c1)C(=O)N1CCC(C(=O)O)CC1 (stereo not drawn) [Compound 69, 1-[2-(2-oxo-4-phenyl-chromen-7-yl)oxypropanoyl]piperidine-4-carboxylic acid]",1 to 10
10,"CC(Oc1ccc2c(-c3ccccc3)cc(=O)oc2c1)C(=O)NCCN1CCOCC1 (stereo not drawn) [Compound 70, N-(2-morpholinoethyl)-2-(2-oxo-4-phenyl-chromen-7-yl)oxy-propanamide]",1 to 10
11,"CCOC(=O)C(CC)Oc1ccc2c(-c3ccccc3)cc(=O)oc2c1 (stereo not drawn) [Compound 71, ethyl 2-(2-oxo-4-phenyl-chromen-7-yl)oxybutanoate]",1 to 10
12,"COc1ccc(NC(=O)C(C)Oc2ccc3c(-c4ccccc4)cc(=O)oc3c2)cc1 (stereo not drawn) [Compound 72, N-(4-methoxyphenyl)-2-(2-oxo-4-phenyl-chromen-7-yl)oxy-propanamide]",1 to 10
13,"CCOCCOC(=O)COc1ccc2c(-c3ccccc3)cc(=O)oc2c1 [Compound 73, 2-ethoxyethyl 2-(2-oxo-4-phenyl-chromen-7-yl)oxyacetate]",1 to 10
14,"CC(C)COC(=O)COc1ccc2c(-c3ccccc3)cc(=O)oc2c1 [Compound 77, isobutyl 2-(2-oxo-4-phenyl-chromen-7-yl)oxyacetate]",1 to 10
15,"CC(Oc1cc(F)c2c(-c3ccccc3)cc(=O)oc2c1)C(=O)N(C)C (stereo not drawn) [Compound 80, 2-(5-fluoro-2-oxo-4-phenyl-chromen-7-yl)oxy-N,N-dimethyl-propanamide]",1 to 10

# Second part, the compound after the results:
row,IC50 [µM],SMILES
1,0.1 to 1,"CC(Oc1cc2oc(=O)cc(-c3ccccc3)c2cc1Cl)C(=O)NCc1ccco1 (stereo not drawn) [Compound 42, 2-(6-chloro-2-oxo-4-phenyl-chromen-7-yl)oxy-N-(2-furylmethyl)propanamide]"
2,1 to 10,"CCOC(=O)C1CCCN(C(=O)COc2ccc3c(-c4ccccc4)cc(=O)oc3c2)C1 (stereo not drawn) [Compound 43, ethyl 1-[2-(2-oxo-4-phenyl-chromen-7-yl)oxyacetyl]piperidine-3-carboxylate]"
3,0.1 to 1,"CC(C)(C)OC(=O)COc1ccc2c(-c3ccccc3)cc(=O)oc2c1 [Compound 44, tert-butyl 2-(2-oxo-4-phenyl-chromen-7-yl)oxyacetate]"
4,1 to 10,"O=C(COc1cc2oc(=O)cc(-c3ccccc3)c2cc1Cl)N1CCOCC1 [Compound 45, 6-chloro-7-(2-morpholino-2-oxo-ethoxy)-4-phenyl-chromen-2-one]"
5,0.1 to 1,"O=C(COc1cc2oc(=O)cc(-c3ccccc3)c2cc1Cl)NC1CC1 [Compound 46, 2-(6-chloro-2-oxo-4-phenyl-chromen-7-yl)oxy-N-cyclopropyl-acetamide]"
6,0.1 to 1,"CCN(CC)C(=O)COc1cc2oc(=O)cc(-c3ccccc3)c2cc1Cl [Compound 47, 2-(6-chloro-2-oxo-4-phenyl-chromen-7-yl)oxy-N,N-diethyl-acetamide]"
7,0.1 to 1,"CCOC(=O)COc1cc2oc(=O)cc(-c3ccccc3)c2cc1Cl [Compound 49, ethyl 2-(6-chloro-2-oxo-4-phenyl-chromen-7-yl)oxyacetate]"
8,0.1 to 1,"CCOC(=O)C(C)Oc1cc2oc(=O)cc(-c3ccccc3)c2cc1Cl (stereo not drawn) [Compound 50, ethyl 2-(6-chloro-2-oxo-4-phenyl-chromen-7-yl)oxypropanoate]"
9,0.1 to 1,"CC(Oc1ccc2c(-c3ccccc3)cc(=O)oc2c1)C(=O)O (stereo not drawn) [Compound 51, 2-(2-oxo-4-phenyl-chromen-7-yl)oxypropanoic acid]"
10,0.1 to 1,"O=C(O)C1CCCN(C(=O)COc2ccc3c(-c4ccccc4)cc(=O)oc3c2)C1 (stereo not drawn) [Compound 54, 1-[2-(2-oxo-4-phenyl-chromen-7-yl)oxyacetyl]piperidine-3-carboxylic acid]"
11,0.1 to 1,"O=C(COc1cc2oc(=O)cc(-c3ccccc3)c2cc1Cl)Nc1ccc(CCO)cc1 [Compound 57, 2-(6-chloro-2-oxo-4-phenyl-chromen-7-yl)oxy-N-[4-(2-hydroxyethyl)phenyl]acetamide]"
12,0.1 to 1,"COC(=O)C(C)Oc1cc2oc(=O)cc(-c3ccccc3)c2cc1Cl (stereo not drawn) [Compound 58, methyl 2-(6-chloro-2-oxo-4-phenyl-chromen-7-yl)oxypropanoate]"
13,1 to 10,"O=C(COc1cc2oc(=O)cc(-c3ccccc3)c2cc1Cl)NCc1cccnc1 [Compound 59, 2-(6-chloro-2-oxo-4-phenyl-chromen-7-yl)oxy-N-(3-pyridylmethyl)acetamide]"
14,1 to 10,"C[C@@H](Oc1ccc2c(-c3ccccc3)cc(=O)oc2c1)C(=O)O [Compound 66, (2R)-2-(2-oxo-4-phenyl-chromen-7-yl)oxypropanoic acid]"
15,1 to 10,"CCCOC(=O)COc1ccc2c(-c3ccccc3)cc(=O)oc2c1 [Compound 74, propyl 2-(2-oxo-4-phenyl-chromen-7-yl)oxyacetate]"
16,1 to 10,"NC(=O)COc1ccc2c(-c3ccccc3)cc(=O)oc2c1 [Compound 75, 2-(2-oxo-4-phenyl-chromen-7-yl)oxyacetamide]"
17,1 to 10,"CCCCOC(=O)COc1ccc2c(-c3ccccc3)cc(=O)oc2c1 [Compound 76, butyl 2-(2-oxo-4-phenyl-chromen-7-yl)oxyacetate]"
18,1 to 10,"O=C(COc1cc2oc(=O)cc(-c3ccccc3)c2cc1Cl)N1CCCc2ccccc21 [Compound 78, 6-chloro-7-[2-(3,4-dihydro-2H-quinolin-1-yl)-2-oxo-ethoxy]-4-phenyl-chromen-2-one]"
19,1 to 10,"CC(Oc1cc2oc(=O)cc(-c3ccccc3)c2cc1Cl)C(=O)NCCN1CCOCC1 (stereo not drawn) [Compound 79, 2-(6-chloro-2-oxo-4-phenyl-chromen-7-yl)oxy-N-(2-morpholinoethyl)propanamide]"
20,1 to 10,"CCOC(=O)COc1ccc2c(-c3ccccc3)cc(=O)oc2c1 [Compound 81, ethyl 2-(2-oxo-4-phenyl-chromen-7-yl)oxyacetate]"
21,1 to 10,"CC(C)(C)OC(=O)COc1cc2oc(=O)cc(-c3ccccc3)c2cc1Cl [Compound 82, tert-butyl 2-(6-chloro-2-oxo-4-phenyl-chromen-7-yl)oxyacetate]"
